Data: US6399745B1, “Use of leptin antagonists for treating insulin resistance in type II diabetes” (Aventis Pharma Deutschland GmbH, priority 1996, dated 2002)

Tested on: isolated rat adipocytes
Assay: Glucose transport (2-deoxyglucose uptake) in isolated rat adipocytes after primary culture with leptin, basal and insulin-stimulated
Format: cell-based
Settings: for Glucose Transport, stimulation factor for insulin (stimulated/basal): Insulin concentration: 5 nM
Experimental: Adipocytes were prepared from the epididymal fat tissue of male Wistar rats (140-160 g, Hoechst AG breeding station, Kastengrund) by means of digesting with collagenase (Rodbell, 1964, J. Biol. Chem. 239, 375-380), washed twice with KRH (25 mM Hepes free acid, 25 mM Hepes sodium salt, 80 mM NaCl, 1 mM MgSO4, 2 mM CaCl2, 6 mM KCl, 1 mM sodium pyruvate, 0.5% BSA) and once with DMEM (Dulbecco's minimal essential medium), supplemented with 5.5 mM glucose, 20 mM Hepes (pH 7.4), 2% fetal calf serum, 1% BSA, 50 U of penicillin/ml, […], by means of flotation (800×g, 1 min, in small plastic tubes), and finally diluted to a volume of 20 ml of DMEM/g wet weight of the fat tissue (cell titer: approximately 2.5×10^5 cells/ml).
The adipocytes were incubated, at 37° C. for 15-18 h under an atmosphere of 5% CO2 and with gentle shaking, in supplemented (see above) DMEM in the presence of 100 nM phenylisopropyladenosine (4 ml of DMEM to 1 ml of cells, cell titer approximately 5×10^4 cell/ml, in 50 ml sterile polypropylene: tubes) and in the presence or absence of leptin. The adipocytes were subsequently washed three times with cold KRH and adjusted to a cell titer of approximately 3×10^5 cells/ml by adding 0.7 ml of glucose-free KRH to the cell layer which remained after the complete removal of the last washing solution. In order to determine the capacity of the adipocytes to be stimulated by insulin, and their sensitivity to insulin, following the primary culture, the washed adipocytes were incubated at 37° C. for 20 min in the absence or presence of human insulin (0.02-50 nM final concentration), and glucose transport or lipogenesis was then measured.
Glucose transport was measured as the specific uptake of the non-metabolizable glucose analog 2-deoxyglucose (Muller and Wied, 1993, Diabetes 42, 1852-1867). 50 μl of the adipocyte suspension in KRH, which suspension had or had not been preincubated with insulin (see above), were incubated, at 25° C. for 5 min, with 50 μl of KRH which was supplemented with 2-deoxy-D-[2,6-^3H]glucose (0.5 μCi, 0.2 mM). The incubation mixtures were transferred to thin soft-plastic centrifuge tubes, each of which already contained 200 μl of dinonyl phthalate oil, and immediately centrifuged (2,000×g, 30 sec). Using special shears, the tubes were severed within the oil layer (in the vicinity of the upper edge) and the upper halves of the tubes, together with the cell layers which had in each case been floated onto the oil layer, were transferred to scintillation vials. After 10 ml of scintillation fluid (water-based) had been added, the radioactivity associated with the cells was measured. In order to correct for 2-deoxyglucose which had become enclosed in the cell interstices, or had diffused into the cells, in a non-specific manner, the radioactivity of cells which had been preincubated with cytochalasin B (20 μM) was subtracted from the total cell-associated radioactivity of each individual incubation mixture (Gliemann et al., 1972, Biochim. Biophys. Acta 286, 1-9).
Isolated rat adipocytes were incubated for 15 h in primary culture in the presence or absence of increasing concentrations of leptin. […] The stimulation factor for insulin was calculated as the ratio between insulin-stimulated and basal activities. Each value represents the mean from two independent adipocyte cultures with activity being determined two or three times in each case.
The cells were then washed and tested for the stimulation of glucose transport by differing concentrations of insulin. Glucose transport activity is given as a “dpm value” of the 2deoxy-[^3H]glucose which is specifically associated with the cells. Each value represents the mean from two independent adipocyte cultures with the activity being determined four times in each case.

## Leptin
Insulin dose/effect curves at different leptin concentrations
  leptin concentration at which effects can already be detected in vitro: 0.5 to 1 nM
Leptin 0.05 nM 16.5 h, insulin 0.02 nM
  glucose transport, uptake of 3H-labeled 2-deoxyglucose: 735 dpm
Leptin 0.05 nM 16.5 h, insulin 0.05 nM
  glucose transport, uptake of 3H-labeled 2-deoxyglucose: 1025 dpm
Leptin 0.05 nM 16.5 h, insulin 0.1 nM
  glucose transport, uptake of 3H-labeled 2-deoxyglucose: 1674 dpm
Leptin 0.05 nM 16.5 h, insulin 0.2 nM
  glucose transport, uptake of 3H-labeled 2-deoxyglucose: 3320 dpm
Leptin 0.05 nM 16.5 h, insulin 0.5 nM
  glucose transport, uptake of 3H-labeled 2-deoxyglucose: 5138 dpm
Leptin 0.05 nM 16.5 h, insulin 1 nM
  glucose transport, uptake of 3H-labeled 2-deoxyglucose: 6834 dpm
Leptin 0.05 nM 16.5 h, insulin 2 nM
  glucose transport, uptake of 3H-labeled 2-deoxyglucose: 7942 dpm
Leptin 0.05 nM 16.5 h, insulin 5 nM
  glucose transport, uptake of 3H-labeled 2-deoxyglucose: 8794 dpm
Leptin 0.05 nM 16.5 h, insulin 10 nM
  glucose transport, uptake of 3H-labeled 2-deoxyglucose: 9134 dpm
Leptin 0.05 nM 16.5 h, insulin 50 nM
  glucose transport, uptake of 3H-labeled 2-deoxyglucose: 9189 dpm
Leptin 0.05 nM 16.5 h, no insulin (basal)
  glucose transport, uptake of 3H-labeled 2-deoxyglucose: 654 dpm
Leptin 0.3 nM 15 h
  Glucose Transport, stimulation factor for insulin (stimulated/basal): 13.4
Leptin 1 nM 15 h
  Glucose Transport, stimulation factor for insulin (stimulated/basal): 11.75
Leptin 1 nM 16.5 h, insulin 0.02 nM
  glucose transport, uptake of 3H-labeled 2-deoxyglucose: 678 dpm
Leptin 1 nM 16.5 h, insulin 0.05 nM
  glucose transport, uptake of 3H-labeled 2-deoxyglucose: 824 dpm
Leptin 1 nM 16.5 h, insulin 0.1 nM
  glucose transport, uptake of 3H-labeled 2-deoxyglucose: 1189 dpm
Leptin 1 nM 16.5 h, insulin 0.2 nM
  glucose transport, uptake of 3H-labeled 2-deoxyglucose: 1587 dpm
Leptin 1 nM 16.5 h, insulin 0.5 nM
  glucose transport, uptake of 3H-labeled 2-deoxyglucose: 2180 dpm
Leptin 1 nM 16.5 h, insulin 1 nM
  glucose transport, uptake of 3H-labeled 2-deoxyglucose: 3904 dpm
Leptin 1 nM 16.5 h, insulin 2 nM
  glucose transport, uptake of 3H-labeled 2-deoxyglucose: 5510 dpm
Leptin 1 nM 16.5 h, insulin 5 nM
  glucose transport, uptake of 3H-labeled 2-deoxyglucose: 6985 dpm
Leptin 1 nM 16.5 h, insulin 10 nM
  glucose transport, uptake of 3H-labeled 2-deoxyglucose: 8241 dpm
Leptin 1 nM 16.5 h, insulin 50 nM
  glucose transport, uptake of 3H-labeled 2-deoxyglucose: 8932 dpm
Leptin 1 nM 16.5 h, no insulin (basal)
  glucose transport, uptake of 3H-labeled 2-deoxyglucose: 634 dpm
Leptin 2 nM 16.5 h, insulin 0.02 nM
  glucose transport, uptake of 3H-labeled 2-deoxyglucose: 704 dpm
Leptin 2 nM 16.5 h, insulin 0.05 nM
  glucose transport, uptake of 3H-labeled 2-deoxyglucose: 755 dpm
Leptin 2 nM 16.5 h, insulin 0.1 nM
  glucose transport, uptake of 3H-labeled 2-deoxyglucose: 860 dpm
Leptin 2 nM 16.5 h, insulin 0.2 nM
  glucose transport, uptake of 3H-labeled 2-deoxyglucose: 1006 dpm
Leptin 2 nM 16.5 h, insulin 0.5 nM
  glucose transport, uptake of 3H-labeled 2-deoxyglucose: 1377 dpm
Leptin 2 nM 16.5 h, insulin 1 nM
  glucose transport, uptake of 3H-labeled 2-deoxyglucose: 1916 dpm
Leptin 2 nM 16.5 h, insulin 2 nM
  glucose transport, uptake of 3H-labeled 2-deoxyglucose: 2680 dpm
Leptin 2 nM 16.5 h, insulin 5 nM
  glucose transport, uptake of 3H-labeled 2-deoxyglucose: 4323 dpm
Leptin 2 nM 16.5 h, insulin 10 nM
  glucose transport, uptake of 3H-labeled 2-deoxyglucose: 6107 dpm
Leptin 2 nM 16.5 h, insulin 50 nM
  glucose transport, uptake of 3H-labeled 2-deoxyglucose: 7032 dpm
Leptin 2 nM 16.5 h, no insulin (basal)
  glucose transport, uptake of 3H-labeled 2-deoxyglucose: 688 dpm
Leptin 3 nM 15 h
  Glucose Transport, stimulation factor for insulin (stimulated/basal): 7.4
Leptin 5 nM 16.5 h, insulin 0.02 nM
  glucose transport, uptake of 3H-labeled 2-deoxyglucose: 734 dpm
Leptin 5 nM 16.5 h, insulin 0.05 nM
  glucose transport, uptake of 3H-labeled 2-deoxyglucose: 798 dpm
Leptin 5 nM 16.5 h, insulin 0.1 nM
  glucose transport, uptake of 3H-labeled 2-deoxyglucose: 883 dpm
Leptin 5 nM 16.5 h, insulin 0.2 nM
  glucose transport, uptake of 3H-labeled 2-deoxyglucose: 923 dpm
Leptin 5 nM 16.5 h, insulin 0.5 nM
  glucose transport, uptake of 3H-labeled 2-deoxyglucose: 1167 dpm
Leptin 5 nM 16.5 h, insulin 1 nM
  glucose transport, uptake of 3H-labeled 2-deoxyglucose: 1583 dpm
Leptin 5 nM 16.5 h, insulin 2 nM
  glucose transport, uptake of 3H-labeled 2-deoxyglucose: 2140 dpm
Leptin 5 nM 16.5 h, insulin 5 nM
  glucose transport, uptake of 3H-labeled 2-deoxyglucose: 2950 dpm
Leptin 5 nM 16.5 h, insulin 10 nM
  glucose transport, uptake of 3H-labeled 2-deoxyglucose: 3682 dpm
Leptin 5 nM 16.5 h, insulin 50 nM
  glucose transport, uptake of 3H-labeled 2-deoxyglucose: 4031 dpm
Leptin 5 nM 16.5 h, no insulin (basal)
  glucose transport, uptake of 3H-labeled 2-deoxyglucose: 712 dpm
Leptin 10 nM 15 h
  Glucose Transport, stimulation factor for insulin (stimulated/basal): 3.5
Leptin 10 nM 16.5 h, insulin 0.02 nM
  glucose transport, uptake of 3H-labeled 2-deoxyglucose: 773 dpm
Leptin 10 nM 16.5 h, insulin 0.05 nM
  glucose transport, uptake of 3H-labeled 2-deoxyglucose: 802 dpm
Leptin 10 nM 16.5 h, insulin 0.1 nM
  glucose transport, uptake of 3H-labeled 2-deoxyglucose: 856 dpm
Leptin 10 nM 16.5 h, insulin 0.2 nM
  glucose transport, uptake of 3H-labeled 2-deoxyglucose: 941 dpm
Leptin 10 nM 16.5 h, insulin 0.5 nM
  glucose transport, uptake of 3H-labeled 2-deoxyglucose: 1209 dpm
Leptin 10 nM 16.5 h, insulin 1 nM
  glucose transport, uptake of 3H-labeled 2-deoxyglucose: 1573 dpm
Leptin 10 nM 16.5 h, insulin 2 nM
  glucose transport, uptake of 3H-labeled 2-deoxyglucose: 2061 dpm
Leptin 10 nM 16.5 h, insulin 5 nM
  glucose transport, uptake of 3H-labeled 2-deoxyglucose: 2476 dpm
Leptin 10 nM 16.5 h, insulin 10 nM
  glucose transport, uptake of 3H-labeled 2-deoxyglucose: 2710 dpm
Leptin 10 nM 16.5 h, insulin 50 nM
  glucose transport, uptake of 3H-labeled 2-deoxyglucose: 2967 dpm
Leptin 10 nM 16.5 h, no insulin (basal)
  glucose transport, uptake of 3H-labeled 2-deoxyglucose: 755 dpm
Leptin 30 nM 15 h
  Glucose Transport, stimulation factor for insulin (stimulated/basal): 2.35
Leptin 30 nM 16.5 h, insulin 0.02 nM
  glucose transport, uptake of 3H-labeled 2-deoxyglucose: 704 dpm
Leptin 30 nM 16.5 h, insulin 0.05 nM
  glucose transport, uptake of 3H-labeled 2-deoxyglucose: 745 dpm
Leptin 30 nM 16.5 h, insulin 0.1 nM
  glucose transport, uptake of 3H-labeled 2-deoxyglucose: 789 dpm
Leptin 30 nM 16.5 h, insulin 0.2 nM
  glucose transport, uptake of 3H-labeled 2-deoxyglucose: 852 dpm
Leptin 30 nM 16.5 h, insulin 0.5 nM
  glucose transport, uptake of 3H-labeled 2-deoxyglucose: 943 dpm
Leptin 30 nM 16.5 h, insulin 1 nM
  glucose transport, uptake of 3H-labeled 2-deoxyglucose: 1183 dpm
Leptin 30 nM 16.5 h, insulin 2 nM
  glucose transport, uptake of 3H-labeled 2-deoxyglucose: 1374 dpm
Leptin 30 nM 16.5 h, insulin 5 nM
  glucose transport, uptake of 3H-labeled 2-deoxyglucose: 1782 dpm
Leptin 30 nM 16.5 h, insulin 10 nM
  glucose transport, uptake of 3H-labeled 2-deoxyglucose: 1972 dpm
Leptin 30 nM 16.5 h, insulin 50 nM
  glucose transport, uptake of 3H-labeled 2-deoxyglucose: 2114 dpm
Leptin 30 nM 16.5 h, no insulin (basal)
  glucose transport, uptake of 3H-labeled 2-deoxyglucose: 688 dpm
Leptin 100 nM 15 h
  Glucose Transport, stimulation factor for insulin (stimulated/basal): 1.5
Leptin 100 nM 16.5 h, insulin 0.02 nM
  glucose transport, uptake of 3H-labeled 2-deoxyglucose: 766 dpm
Leptin 100 nM 16.5 h, insulin 0.05 nM
  glucose transport, uptake of 3H-labeled 2-deoxyglucose: 780 dpm
Leptin 100 nM 16.5 h, insulin 0.1 nM
  glucose transport, uptake of 3H-labeled 2-deoxyglucose: 803 dpm
Leptin 100 nM 16.5 h, insulin 0.2 nM
  glucose transport, uptake of 3H-labeled 2-deoxyglucose: 813 dpm
Leptin 100 nM 16.5 h, insulin 0.5 nM
  glucose transport, uptake of 3H-labeled 2-deoxyglucose: 883 dpm
Leptin 100 nM 16.5 h, insulin 1 nM
  glucose transport, uptake of 3H-labeled 2-deoxyglucose: 896 dpm
Leptin 100 nM 16.5 h, insulin 2 nM
  glucose transport, uptake of 3H-labeled 2-deoxyglucose: 1034 dpm
Leptin 100 nM 16.5 h, insulin 5 nM
  glucose transport, uptake of 3H-labeled 2-deoxyglucose: 1205 dpm
Leptin 100 nM 16.5 h, insulin 10 nM
  glucose transport, uptake of 3H-labeled 2-deoxyglucose: 1451 dpm
Leptin 100 nM 16.5 h, insulin 50 nM
  glucose transport, uptake of 3H-labeled 2-deoxyglucose: 1723 dpm
Leptin 100 nM 16.5 h, no insulin (basal)
  glucose transport, uptake of 3H-labeled 2-deoxyglucose: 747 dpm
leptin, basal values unaffected
  insulin sensitivity of stimulation of glucose transport: drastically reduced
